This note sets out measurements from PubChem BioAssay AID179 (DTP/NCI, 2004).

For this assay, the system named is CEM cells HIV-1 protection, formazan growth assay. Description: NCI AIDS Antiviral Assay. The following applies: for pIC50: measured here: growth of uninfected CEM cells. The method, boiled down: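 Soluble formazan readout of cell growth; CEM cells ± HIV-1; 5 drug concs. ≥50% protection → retest; ≥50% again = moderately active; reproducible 100% = confirmed active.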

pEC50, pIC50: −log10 of the molar value. Activity calls are given as the source filed them.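 Rule for the calls: active = compounds giving half or more protection of infected cells from virus-caused growth loss, again on retest; inactive = the rest.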 Where a SMILES comes first, the peptide text is derived from it. The star is where a group is joined. CH2Cl = ClC*

By pEC50 is commonly meant the negative decadic logarithm of the EC50, by convention in mol/L. By pIC50 is commonly meant the negative decadic logarithm of the IC50, by convention in mol/L. A higher pIC50 goes with a small IC50.

With `CC(=O)NC(CC(C)C)C(=O)NC(Cc1ccccc1)C(=O)CCl` (stereo not drawn) (Ac-Leu-Phe-CH2Cl; configuration not given here), the pEC50 was below 3.70 and the pIC50 is 5.95. The matching figures for `O=C1c2ccccc2C(=O)N1N1CC1c1ccccc1` (stereo unspecified): below 3.70 and 3.86. In the case of `CC(=O)C1(O)Cc2c(O)c3c(c(O)c2C(OC2CC(N)C(O)C(C)O2)C1)C(=O)c1ccccc1C3=O` (stereo unspecified), the pEC50 is below 3.47 and the negative-log IC50 (pIC50) is 6.97. The matching figures for `CC1(C)CCCC2OC2CCC(C)(C)C1=O` (stereo unspecified): below 3.70 and below 3.70. In the case of `c1ccc2sc(SSSc3nc4ccccc4s3)nc2c1`, the pEC50 was 4.85 and the pIC50 is 4.46. Consider `Cc1ccc(-c2c(C#N)c(S)n(NS(=O)(=O)c3ccc(C)cc3)c(=O)c2C#N)cc1`, for which the pEC50 was below 3.70 and the pIC50 is 4.93. With `O=C(CC(O)(C(F)(F)F)C(F)(F)F)C(CCCl)C(O)(C(F)(F)F)C(F)(F)F` (stereo unspecified), the pEC50 was below 3.70 and the negative logarithm of the IC50 (pIC50) is 4.48.

In the case of `O=[N+]([O-])c1cc(/C=N/NS(=O)(=O)c2ccc(F)cc2)c(O)c([N+](=O)[O-])c1`, the pEC50 was below 3.19 and the pIC50 is 4.43. On to `CCC1=CC2CN3CCc4c([nH]c5ccccc45)[C@@](C(=O)OC)(C2)[C@@H]13`, for which the outcome was inactive.

For `CC(=O)OCC1OC(N2C(S)=C(C#N)C(c3ccco3)C(C(C)=O)=C2c2ccccc2)C(OC(C)=O)C(OC(C)=O)C1OC(C)=O` (stereo unspecified), the pEC50 is 4.02 and the negative-log IC50 (pIC50) is below 3.70. For `O=C1CSC(c2ccc(Cl)cc2Cl)N1c1ccc(Oc2ccc(Cl)cc2)c(Cl)c1` (stereo unspecified), the pEC50 was below 4.00 and the negative logarithm of the IC50 (pIC50) is 4.58. On to `CC(=O)OC(C)(C)/C=C/C(=O)[C@](C)(O)[C@H]1[C@H](O)C[C@@]2(C)[C@@H]3CC=C4[C@@H](C=C(OC5OC(CO)C(O)C(O)C5O)C(=O)C4(C)C)[C@]3(C)C(=O)C[C@]12C` (stereo partly specified), for which the pEC50 is below 3.70 and the pIC50 was 5.01. As to `Cc1cc(=O)n2nc(CSc3nnc(N)s3)sc2n1`, the pEC50 is below 3.70 and the pIC50 is below 3.70.

Regarding `CC(C)(C)SSCCN`, the pEC50 was below 3.70 and the pIC50 was below 3.70. Turning to `O=C(O)c1cccc(S(=O)(=O)NN2C(=O)CSC2c2ccc(Cl)cc2Cl)c1` (stereo unspecified), the pEC50 was below 3.70 and the pIC50 is 4.45. On to `CCOC(=O)c1ccc(N2CN3c4ccccc4CCC3C2c2c[nH]c(=O)[nH]c2=O)cc1` (stereo unspecified), for which the pEC50 was below 4.16 and the negative-log IC50 (pIC50) is below 4.16. Consider `Nc1ccccc1C1=Nc2cncnc2NC1`, for which the pEC50 was below 3.38 and the negative logarithm of the IC50 (pIC50) was 3.53.

Take `CCOC(=O)c1cc2c(nc1N)C(=O)CCCC2`: the pEC50 is below 3.70 and the pIC50 is 3.83. With `C[C@@]1(CO[N+](=O)[O-])OC(=O)N2CCC[C@H]21`, the pEC50 is below 2.94 and the pIC50 is below 2.94. With `Cc1c(NC(=S)Nc2ccc([N+](=O)[O-])cc2)c(=O)n(-c2ccccc2)n1C`, the pEC50 was below 3.70 and the pIC50 was below 3.70. In the case of `CC(=O)NC(CC(C)C)C(=O)NC(CC(=O)O)C(=O)NC(CCCCN)C(=O)NC(C)C(=O)NC(CO)C(=O)NC(Cc1ccc(O)cc1)C(=O)NC(CO)C(=O)NC(C(=O)NC(CC(N)=O)C(=O)NC(Cc1cnc[nH]1)C(=O)NC(CC(C)C)C(N)=O)C(C)O` (stereo unspecified) (Ac-LDKASYSTNHL-NH2; configuration not given here), the pEC50 is below 4.32 and the pIC50 is below 4.32. Consider `N#CC(NC12CC3CC(CC(C3)C1)C2)c1ccccc1C(F)(F)F` (stereo unspecified), for which the pEC50 is below 4.11 and the pIC50 is below 4.11.

For the compound `CC(=O)/C=C/c1ccc(C)cc1`, the pEC50 is below 4.20 and the pIC50 is below 4.20.

Regarding `CCOC(=O)c1ccc(-c2cccs2)[nH]1`, the pEC50 was below 3.70 and the pIC50 is 4.41. Turning to `CN(C)C1C(=O)C(C(N)=O)=C(O)C2(O)C(=O)C3=C(O)c4c(O)cccc4C(C)(O)C3CC12.[Cl][Sb]([Cl])[Cl]` (stereo unspecified), the pEC50 was below 3.70 and the pIC50 is 4.45.

Take `CC(C)(C)[Si](C)(C)OCC1OC(n2ccc(=O)[nH]c2=O)C(C/C=[N+](/[O-])CC2OC(n3ccc(=O)[nH]c3=O)C(O[Si](C)(C)C(C)(C)C)C2O[Si](C)(C)C(C)(C)C)C1O[Si](C)(C)C(C)(C)C` (stereo unspecified): the pEC50 is below 4.00 and the pIC50 was 4.05. The compound `O=C(c1ccccc1)N1CCC(Nc2cccnc2)O1` (stereo unspecified) had a pEC50 below 3.70 and a pIC50 of 3.98. With `CCOC(=O)C(C)c1nc2cc(F)c(F)cc2[nH]c1=O` (stereo unspecified), the pEC50 is below 3.70 and the negative-log IC50 (pIC50) was below 3.70. Turning to `CS(=O)(=O)CS(=O)CS(=O)CS(=O)CC(NC(=O)CCC(N)C(=O)O)C(=O)O` (stereo unspecified), the pEC50 is below 3.29 and the pIC50 is below 3.29. Take `O=C1OC2CSCC2O1` (stereo unspecified): the pEC50 was below 2.77 and the pIC50 is below 2.77. In the case of `CCCC(=O)c1c(NOC2OC(COC(C)=O)C(OC(C)=O)C(OC(C)=O)C2OC(C)=O)nc(OC)n(C)c1=O` (stereo unspecified), the pEC50 is below 4.20 and the pIC50 was below 4.20. In the case of `CCc1cccc(C(C)(C)C)c1NC(=S)N/C=C(\c1ccccc1)S(=O)Cc1ccccc1` (stereo unspecified), the pEC50 was 3.74 and the pIC50 is below 3.70. Turning to `CC1(C)N=C(C(N)=O)c2ncn(CCCO)c2N1`, the pEC50 was below 3.70 and the pIC50 is below 3.70. Consider `c1ccc2nc(SSc3ccc4ccccc4n3)ccc2c1`, for which the pEC50 was below 3.70 and the pIC50 is 4.62. With `CC(C)Cc1cccc(C(C)C)c1NC(=O)CCC(=O)N/N=C1\C(=N/NC(=O)CCC(=O)Nc2c(C(C)C)cccc2C(C)C)C(c2ccc3c(c2)OCO3)Oc2ccccc21` (stereo unspecified), the pEC50 is below 3.95 and the pIC50 was 4.09. For `COc1ccc(CN2COc3c(cc(C)c4cccnc34)C2)cc1`, the pEC50 is below 3.70 and the pIC50 is 5.99.

As to `O=C(O)c1nn(-c2ccccc2)nc1-c1nn(-c2ccccc2)nc1C(=O)O`, the pEC50 is below 3.70 and the pIC50 is below 3.70. Consider `COC(=O)C1C(C(=O)OC)C2N(c3ccccc3)C=NN2C1C(=O)c1ccccc1` (stereo unspecified), for which the pEC50 is 3.74 and the pIC50 was below 3.70. The matching figures for `Clc1ccc(CN2COc3c(ccc4cccnc34)C2)cc1`: below 3.70 and 5.74.

Take `CC1=C(CO)C(=O)OC(C(C)C2CCC3C4CC5OC56C(O)C(N5CC5)=CC(=O)C6(C)C4CCC23C)C1` (stereo unspecified): the outcome was inactive. As to `CC(=O)O[C@@H]1O[Si](C(C)(C)C)(C(C)(C)C)[C@H](C)[C@H]1C`, the pEC50 is below 4.00 and the pIC50 was below 4.00.

`NC(=O)C1CCCN1C(=O)C(Cc1cnc[nH]1)NC(=O)C1CCCC1` (stereo unspecified): the pEC50 was below 3.70 and the pIC50 is below 3.70. Consider `CN(C)CCCNC(=O)c1cc(NC(=O)c2cc(NC(=O)c3cc(NC(=O)c4cncc(C(=O)Nc5cc(C(=O)Nc6cc(C(=O)Nc7cc(C(=O)NCCCN(C)C)n(C)c7)n(C)c6)n(C)c5)c4)cn3C)cn2C)cn1C`, for which the pEC50 was below 4.00 and the pIC50 is below 4.00. Turning to `O=C(O)[C@@H](NS(=O)(=O)c1ccc2ccccc2c1)c1ccccc1`, the result was inactive.

Consider `O=C1CC2(C(=O)N1CN1CCOCC1)c1ccccc1-c1ccccc12`, for which the pEC50 was below 3.99 and the pIC50 was 4.86. In the case of `COc1cc(/C=C2\CC/C(=C\c3cc(OC)c(O)c(OC)c3)C2=O)cc(OC)c1O`, the pEC50 is below 3.70 and the pIC50 was 5.99. Regarding `Cc1nc2c(=O)n(C)c(=O)nc-2n(-c2ccc(Cl)cc2)c1C`, the outcome was inactive. Turning to `Cc1nc2c(c(N3CCN(C)CC3)n1)Cc1ccccc1-2`, the pEC50 was below 3.70 and the pIC50 is 4.38.

Regarding `CCCC(=O)c1c(NOC2OCC(OC(C)=O)C(OC(C)=O)C2OC(C)=O)nc(OC)n(C)c1=O` (stereo unspecified), the pEC50 is below 4.84 and the negative logarithm of the IC50 (pIC50) is below 4.84. Turning to `CCOC(=O)C(=O)Nc1ccccc1OCC`, the pEC50 was below 3.68 and the negative-log IC50 (pIC50) was below 3.68.

For `Cn1c(=O)cc(C=Nc2ccc(-c3ccccc3)cc2)c2ccccc21`, the pEC50 was below 4.00 and the pIC50 is 5.70. As to `CCOC(=O)c1cnc2[nH]c(=O)c3ccccc3n2c1=O`, the outcome was inactive. On to `O=S(=O)(NCCSSCCNS(=O)(=O)c1ccc2ccccc2c1)c1ccc2ccccc2c1`, for which the pEC50 was below 3.70 and the pIC50 was 4.19.

`COC(=O)c1noc2c1CSc1ccccc1-2`: the pEC50 was below 3.58 and the pIC50 is 3.91. On to `CCCNC(=O)c1nc(SC)sc1NC(=O)c1ccc([N+](=O)[O-])cc1`, for which the pEC50 is below 3.70 and the negative logarithm of the IC50 (pIC50) was 3.72. Turning to `CC1=C(N2CCOCC2)C(N2CCOCC2)=C(C)C(=O)C1=O`, the pEC50 was below 3.70 and the pIC50 was 4.84.

As for `Cc1cccc2c(=O)c3ccccc3oc12`, the pEC50 was below 3.77 and the negative logarithm of the IC50 (pIC50) was below 3.77. Consider `CN(C)c1ccc(/C=C(\C#N)c2c(Cl)cccc2Cl)cc1`, for which the pEC50 is below 3.70 and the pIC50 is 5.34. Consider `C1=CC2C(c3cn(-c4ccccc4)nc31)C1C2C2C=CC3C(C=C2)C31` (stereo unspecified), for which the pEC50 is below 5.49 and the pIC50 was below 5.49. As to `CC[C@H](NC(=O)OC(C)(C)C)C(=O)NCP(=O)(OCc1ccc([N+](=O)[O-])cc1)OCc1ccc([N+](=O)[O-])cc1`, the pEC50 is below 3.70 and the pIC50 is 4.47. `O=[N+]([O-])c1cccc2nc3ccccc3c(NCCCCNc3c4ccccc4nc4cccc([N+](=O)[O-])c34)c12`: the pEC50 was below 7.00 and the negative-log IC50 (pIC50) is 7.79.

`O=C(CC1(O)C(=O)Nc2c(Cl)ccc(Cl)c21)c1ccc(Cl)cc1Cl` (stereo unspecified): the pEC50 was below 4.89 and the negative logarithm of the IC50 (pIC50) is below 4.89.

As for `COc1ccc(C2OC(=O)c3ccc4ccccc4c32)c(C)c1` (stereo unspecified), the pEC50 was below 4.35 and the pIC50 was 4.61. In the case of `CCOC(=O)C1=C(C)NC(C)=C(C(=O)OCC)C1c1ccc([N+](=O)[O-])s1`, the outcome was inactive. Regarding `CCCCC(C)CCCC1=C(O)C(CC(=O)O)OC1=O` (stereo unspecified), the pEC50 was below 4.06 and the pIC50 was below 4.06.

Turning to `Nc1cccc(C(CC(=O)O)CC(=O)O)c1`, the pEC50 was below 3.70 and the negative-log IC50 (pIC50) was below 3.70.
